According to patent publication US20240252446A1, “DERIVATIZED COLLAGEN-HYALURONIC ACID BASED IMPLANTS FOR SUSTAINED DELIVERY OF OPHTHALMIC DRUGS” (SUSTAINED DRUG DELIVERY LLC, priority 2023, published 2024):

Assay: Evaluation of active agent release in vitro from polymerized collagen-hyaluronic acid film (HPLC)
Assay type: physicochemical
Settings: from UV-polymerized (18 min, 254 nm) collagen-hyaluronic acid film, 0.01 M phosphate buffer pH 7.4, 37° C., 1 hour to 3 months
Protocol: Four round pieces of 35 mm diameter polymerized film were cut into 4 sections and placed in 1.5 mL vials containing 1 mL of 0.01 M phosphate buffer at a pH of 7.4. The 16 vials were placed in a controlled temperature chamber at 37° C. Five aliquots of 100 μL were removed from 2 vials each at 1 hour, 3 days, 7 days, 2 weeks, 1 month, 2 months, and 3 months. Two vials were reserved for additional time periods if release was still noted at 3 months. Four vials of buffer only were used for controls.
Active agent concentration (e.g., Latanoprost) was measured by HPLC at Millennium Research Laboratories. Detection at nanogram levels was validated using active agent (e.g., Latanoprost) standards and concentration curves.

CC(C)OC(=O)CCC/C=C\C[C@@H]1[C@@H](CC[C@@H](O)CCc2ccccc2)[C@H](O)C[C@@H]1O [Latanoprost, 13,14-dihydro-17-phenyl-18,19,20-trinor-prostaglandin F2a-1-isopropyl ester]
Active agent release profile: initial bolus release at 1 day followed by sustained, zero order release through 3 months
